Assay results as given in patent US6372297B1, “Wood preservative oxathiazines” (Uniroyal Chemical Company, Inc., priority 1993, dated 2002).

Key:
Format in all cases: cell-based
Cladosporium resinae = assay: Wood preservative efficacy against fungi, agar plate colony diameter; details: Test dosage 10 ppm, Table 6A
Experimental: (§1) Each plate was inoculated with a spore suspension or with a small piece of agar (1 mm) from the margin of an actively growing colony of the test fungus. The fungi employed are listed below. After incubation at 22° C. and 70% relative humidity during a period long enough to allow significant growth of untreated controls, the diameters of the fungus colonies were measured and scored using the following rating system: 0=free of fungal growth 1=25% of fungal growth compared to untreated 2=50% of fungal growth compared to untreated 3=75% of fungal growth compared to untreated 4=Growth equal to that of untreated The scores measured for wood preservation efficacy of the compounds of this invention are listed in Tables 6a and 6b. In these Tables, the lower numbers are the most preferred species. Cladosporium resinae (syn Hormonocanis resinae, Amorphotheca resinae)

Debaryomyces hansenii = assay: Wood preservative efficacy against bacteria and yeasts, tryptose agar plates; parameters: key: 0 = growth equal to control, 1 = inhibition, 2 = no growth
Experimental: Compositions were prepared by dissolving the compounds shown in Table 1 in 50% ethanol and further diluting with sterile distilled water. […] After cooling, the medium was inoculated with the bacteria listed below. After sufficient growth of the untreated cultures, the compounds were evaluated using the following rating system: 0=growth equal to control 1=inhibition of growth by the compound 2=no growth under the influence of the compound. In this Table, the higher numbers are the most preferred species. Debaryomyces hansenii (yeast)

Trichoderma viride = assay: Wood preservative efficacy against fungi, agar plate colony diameter; details: Test dosage 10 ppm, Table 6A
Experimental: as §1, with “Trichoderma viride” for “Cladosporium resinae (syn Hormonocanis resinae, Amorphotheca resinae)”

Enterobacter aerogenes = assay: Wood preservative efficacy against bacteria and yeasts, tryptose agar plates; parameters: key: 0 = growth equal to control, 1 = inhibition, 2 = no growth; details: 100 ppm in tryptose agar
Method in brief: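 Compounds dissolved in 50% ethanol and diluted in sterile water were added to the medium, which was then inoculated with the bacterium. Once untreated cultures had grown, growth was scored 0 (equal to control), 1 (inhibited) or 2 (no growth).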

[1] = system: molds and blue-stain fungi; assay: In vitro activity against molds and blue-stain fungi, poison plate assay (MIC); details: malt extract agar, complete inhibition
Method in brief: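 Poison plate format: compound diluted in sterile water and mixed into malt extract agar, then plates inoculated with each fungus. Growth inhibition scored at each concentration to give the MIC.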

Pseudomonas alcaligenes = assay: Wood preservative efficacy against bacteria and yeasts, tryptose agar plates; parameters: key: 0 = growth equal to control, 1 = inhibition, 2 = no growth; details: 100 ppm in tryptose agar
Method in brief: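 Compounds dissolved in 50% ethanol, diluted with sterile water and incorporated into tryptose agar, then inoculated with Pseudomonas alcaligenes. Once untreated cultures grew, scored 0 (growth as control), 1 (inhibited growth) or 2 (no growth).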

Escherichia coli = assay: as above; parameters: key: 0 = growth equal to control, 1 = growth inhibited, 2 = no growth; details: 100 ppm in tryptose agar
Method in brief: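 Compounds were dissolved in 50% ethanol, diluted with sterile water and tested against inoculated bacterial cultures on agar. Growth was scored against untreated controls: 0 = growth equal to control, 1 = growth inhibited, 2 = no growth.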

Coriolus versicolor = assay: Wood preservative efficacy against fungi, agar plate colony diameter; details: Test dosage 10 ppm, Table 6A
Experimental: as §1, with “Coriolus versicolor” for “Cladosporium resinae (syn Hormonocanis resinae, Amorphotheca resinae)”

[O-][S+]1CCON=C1c1cccs1 (centres unmarked) [Compound 8]
Score of fungicidal activity, CL RESINAE (Cladosporium resinae): 2 (50% of growth compared to untreated control) | Score of bactericidal activity, D. hansenii (Debaryomyces hansenii; 10 ppm in tryptose agar): 2 | Score of bactericidal activity, D. hansenii (Debaryomyces hansenii; 100 ppm in tryptose agar): 2 | Score of fungicidal activity, T. VIRIDE (Trichoderma viride): 2 (50% of growth compared to untreated control) | Score of bactericidal activity, E. aerogenes (Enterobacter aerogenes): 2 | MIC (ppm) against A. amstelodami ([1]; A. amstelodami): 10 ppm | MIC (ppm) against A. niger ([1]; A. niger): 25 ppm | MIC (ppm) against A. pullulans ([1]; A. pullulans): >25 ppm | MIC (ppm) against A. versicolor ([1]; A. versicolor): 10 ppm | MIC (ppm) against C. cladosporioides ([1]; C. cladosporioides): >25 ppm | MIC (ppm) against C. pilifera ([1]; C. pilifera): 5 ppm | MIC (ppm) against F. solani ([1]; F. solani): 25 ppm | MIC (ppm) against G. candidum ([1]; G. candidum): >25 ppm | MIC (ppm) against P. purpurogenum ([1]; P. purpurogenum): >25 ppm | MIC (ppm) against P. variotii ([1]; P. variotii): >25 ppm | MIC (ppm) against P. violacea ([1]; P. violacea): 25 ppm | MIC (ppm) against S. atra ([1]; S. atra): 10 ppm | MIC (ppm) against S. entoxylina ([1]; S. entoxylina): 10 ppm | MIC (ppm) against T. viride ([1]; T. viride): >25 ppm | MIC (ppm) against U. atrum ([1]; U. atrum): 25 ppm | Score of bactericidal activity, P. alcalgenes (Pseudomonas alcaligenes): 2 | Score of bactericidal activity, E. Coli (Escherichia coli): 2 | Score of fungicidal activity, C. VERSICLOR (Coriolus versicolor): 0
